The text below walks through data of a melting point compilation (Tetko et al.; mined from patent text by program, amines drawn as free bases though some values may be those of a salt).

A value given as a limit tells only on which side of the number the result lay.

Take `COc1ccc(-c2ccc(C(=O)O)cc2)c2c1OCCO2`: the melting point – broadly, the temperature of the solid-liquid transition – was in the range of 281 to 284 °C.

In turn, `Cn1c(=O)cc(CCc2cccc(Cl)c2)c2cc(C(O)(c3ccc(Cl)cc3)c3cccnc3)ccc21` (stereo unspecified) registered a melting point of 115 °C.

Compound `CCOC(=O)c1sc(-c2ccc3c(=O)n(CC(C)C)c(CNC(=O)OC(C)(C)C)c(-c4ccccc4)c3c2)nc1C` gave a melting point of 201 to 202 °C.

In the case of `Cn1cccc1-c1nc(-c2cccnc2)no1`, the melting point is 108 to 109 °C.

`COc1ccc(CCN2CCCC(CO)C2)cc1OC` (stereo unspecified) displayed a melting point of 87.5 to 89 °C.

With `CC(=O)NC1Cc2ccc(NC(=O)c3ccccc3-c3ccc(F)cc3)cc2C1` (stereo unspecified), the melting point lay within 218 to 220 °C.

On to `CC(=O)OCc1c(Br)cccc1N1CCn2c(nc3c2CCCC3)C1=O`, for which the melting point is 205 to 206 °C.

`CCOC(=O)/C=C/c1cccc(C(F)(F)F)c1`: the melting point is 40 to 41 °C.

`COc1ccc(/C=C/c2ccc3c(Nc4cc(OC)c(Cl)cc4Cl)c(C#N)cnc3c2)cc1` came in with a melting point of 216 to 220 °C.

For the compound `CC[C@@H]1N(c2ccc(C#N)c(Cl)c2C)C(=O)C[C@@]1(O)C1CC1`, the melting point was 177 to 179 °C.

Turning to `CC1(C)CC2(NC(=O)NC2=O)c2cc(Cl)ccc2O1` (stereo unspecified), the melting point is 281 to 283 °C.

Take `COc1ccc(CCC(=O)c2c(O)cc(OC)cc2OC)cc1`: the melting point was 110 °C.

As to `CN1C(=O)CC[C@]2(C)c3ccc(-c4cccc(NC(=O)C(C)(C)C)c4)cc3CC[C@@H]12`, the melting point lay in the range of 95 to 98 °C.

Turning to `O=C1Nc2c(Cl)cccc2C1(O)c1ccccc1` (stereo unspecified), the melting point lay within 154 to 156 °C.

The compound `COc1cccc(C23CCCC=C2C(=O)N(CCc2ccc(C)cc2)C(=O)C3)c1` (stereo unspecified) gave a melting point of 134 to 140 °C.

Consider `COC(=O)c1cc(C(C)(C)C#N)cc(C(C)(C)C#N)c1`, for which the melting point was in the range of 83 to 85 °C.

As to `COc1ccc(C(=O)c2sccc2OC2OC(COC(C)=O)C(OC(C)=O)C(OC(C)=O)C2OC(C)=O)cc1` (stereo unspecified), the melting point lay in the range of 149 to 151 °C.

Compound `Clc1ncc(CN2CC3(COc4cc5c(cc43)OCO5)c3ccccc32)s1` (stereo unspecified) returned a melting point of 195 to 198 °C.

As for `COc1cc(N)c(Cl)cc1C(C)=O`, the melting point lay in the range of 114 to 116 °C.

As to `Cc1cc(Nc2cc(C(C)(C)C)c(O)c(C(C)(C)C)c2)n2nccc2n1`, the melting point lay in the range of 251 to 253 °C.

As for `O=C(O)c1cccc2c1CCCc1ccccc1-2`, the melting point fell in the range of 137 to 139 °C.

`CCCc1cc(O)cc2cc(-c3ccc(O)cc3)oc12`: the melting point fell in the range of 178 to 180 °C.

On to `COC(=O)/C=C/c1ccc(OC2Cc3ccccc3C2)cc1`, for which the melting point lay in the range of 115 to 116 °C.

`CS(=O)(=O)C(=C1CN(C(c2ccccc2)c2ccccc2)C1)c1cccc2ccccc12` yielded a melting point of 196 °C.

Turning to `COc1ccc(Br)cc1C1=NC(C)(C)CO1`, the melting point is 41 °C.

Take `CC(C)(C)NCC(O)c1ccc(OCc2ccccc2)c(C(N)=O)c1` (stereo unspecified): the melting point came out at 120 °C.

Turning to `CCOP(=O)(OCC)Oc1c(Br)c(C)nc(C)c1-c1ccc(Oc2ccc(OC(F)(F)F)cc2)cc1`, the melting point fell in the range of 80 to 81 °C.

Take `N=C(NO)c1ccc2cc(O)c(O)cc2c1`: the melting point lay in the range of 238 to 243 °C.

In turn, `O=C(OC[C@@H]1CC(c2ccc(-c3ccc(N4C[C@H](Cn5ccnn5)OC4=O)cc3F)cn2)=NO1)c1cnccn1` showed a melting point of 205 to 226 °C.

The compound `CC(CNc1nc(N)nc2c1ncn2C1OC(CO)C(O)C1O)(c1ccccc1)c1ccccc1` (stereo unspecified) registered a melting point of 129 to 132 °C.

Turning to `CC(=CC#N)c1cc(-c2ccc(S(C)(=O)=O)cc2)c(-c2ccc(F)cc2)s1`, the melting point fell in the range of 150 to 154 °C.

On to `CNCc1cccc(NC(=O)c2c[nH]c3c2C(=O)CCC3)c1`, for which the melting point is 130 to 132 °C.

As to `CCC(O)(c1ccc(OCCCN2CCN(C)CC2)cc1)c1cccc(C(F)(F)F)c1` (stereo unspecified), the melting point is 129 to 130 °C.

Regarding `CCOC(=O)Cc1sc(Sc2cc(C(F)(F)F)ccn2)nc1C`, the melting point was in the range of 57 to 59 °C.

`CC(=O)Nc1ccc(C(=O)Oc2ccccc2)c(Cl)c1`: the melting point was 84 to 86 °C.

For the compound `Cc1c(S(=O)(=O)c2ccc(=O)[nH]n2)oc2cc(Cl)ccc12`, the melting point was above 240 °C.

`Cc1[nH]c(=S)n(Nc2cccc([N+](=O)[O-])c2)c1-c1ccccc1` came in with a melting point of 214 °C.

Regarding `O=C(Nc1cc(Cl)c(N2CCCC2)c(Cl)c1)c1ccc(F)c(OCc2cccnc2)c1`, the melting point was 163 to 167 °C.

With `CC(=O)OCCN1CCN(C(=O)Cn2c(=O)sc3ncc(Cl)cc32)CC1`, the melting point lay in the range of 153 to 155 °C.

Turning to `CCCC(CCC)c1ccc(CN(C)c2ccc(-c3coc(CN(CC(=O)O)Cc4ccccc4)n3)cc2)cc1`, the melting point lay within 129 to 131 °C.

With `CCOC(=O)COc1cc(-n2nc(C)n(C(F)F)c2=O)c(Cl)cc1Cl`, the melting point fell in the range of 118 to 119 °C.

In turn, `O=C1CCC(N2C(=O)c3cccc(OCc4ccc(CN5CC6CCC(C5)O6)cc4)c3C2=O)C(=O)N1` (stereo unspecified) showed a melting point of 196 to 198 °C.

The compound `O=C(O)[C@H](CCc1ccc(F)cc1F)NC(=O)C(F)(F)F` displayed a melting point of 62 to 83.5 °C.

With `O=C(Cc1ccc2ccn(C3CCN(CCc4ccc(F)cc4)CC3)c2c1)NCCO`, the melting point lay within 140 to 141 °C.

Compound `O=C(NO)C1(NS(=O)(=O)c2ccc(OCc3ccc(Cl)cc3Cl)cc2)CC1c1ccccc1` (stereo unspecified) showed a melting point of 164 to 169 °C.

For the compound `CSc1ccc(-c2nn(Cc3ccc(F)cc3)c(=O)cc2-c2ccc(F)cc2)cc1`, the melting point worked out at 156 °C.

With `O=C(c1ccccc1)c1nc2cc(C(c3ccccc3)n3ccnc3)ccc2[nH]1` (stereo unspecified), the melting point is 223 °C.

`COc1cc2c(cc1OCCN(C)C)N(C(=O)c1ccc(-c3ccc(C#N)cc3C)cc1)CC2`: the melting point is 167 to 171 °C.

The compound `O=[N+]([O-])c1ccc(C2SCCCS2)c(CO)c1` showed a melting point of 130 to 131 °C.

`O=C(O)c1nc2ccccc2n(Cc2ccccc2)c1=O` displayed a melting point of 149 to 150 °C.

Turning to `CCC(C)c1ccccc1SC1=C(O)CC(c2ccccc2)(c2ccccc2)OC1=O` (stereo unspecified), the melting point was 161 to 162 °C.

As for `O=C(O)CCc1[nH]nc2c1CCCCC2`, the melting point lay in the range of 102 to 105 °C.

The compound `CNC(=O)CC1CN=C(c2cc3cc(Oc4ccc(S(C)(=O)=O)cn4)cc(OC(C)C)c3[nH]2)S1` (stereo unspecified) showed a melting point of 190 to 192 °C.

`O=Cc1ccc(=O)[nH]c1` registered a melting point of 222 to 224 °C.

Compound `O=C1c2cccc3cc([N+](=O)[O-])cc(c23)C(=O)N1OCc1ccccc1` gave a melting point of 239 to 241 °C.

With `CCCCCCCCCCCC(CC(O)C(C(=O)OC(C)(C)C)S(=O)c1ccc(C)cc1)OC1CCCCO1` (stereo unspecified), the melting point fell in the range of 97 to 98 °C.

Compound `CC(C)(C)c1ccc(C(O)CCCn2ccnc2)cc1` (stereo unspecified) had a melting point of 205 to 207 °C.

`N#Cc1c(Br)c(Br)n(C(=O)c2ccc(Cl)cc2)c1Br` showed a melting point of 154 to 157 °C.

`COC(=O)C(C)(C)OCC#Cc1cc(Cl)ccc1NS(=O)(=O)c1ccc2c(c1)OCCN2C` showed a melting point of 98 to 100 °C.

Take `COc1ccc(Cl)cc1C(=O)NCCc1ccc(-c2ccc(S(C)(=O)=O)cc2)c(S(N)(=O)=O)c1`: the melting point stood at 114 °C.

For the compound `CCP(=O)(CC)Cc1ccc(NC(=O)C2=Cc3cc(-c4ccc(C)cc4)ccc3OCC2)cc1`, the melting point is 240 to 241 °C.
